Data taken from patent US8207178B2 (priority 2007, dated 2012).
Like-named read-outs stand apart in the source and are kept apart here.

What was measured:
wild type HIV-1 = assay: microbe, parasite or virus in culture; type: cell-based, human immunodeficiency virus type 1 (HIV-1); conditions: Human immunodeficiency virus 1, Hela-JC53
HIV-1 K103N-L100I mutant = assay: microbe, parasite or virus in culture; type: cell-based, human immunodeficiency virus type 1 (HIV-1)
[1] = Human immunodeficiency virus 1, HeLa, read-out: EC50 mutant K103N-L100I, mutant K103N-L100I

Structure (SMILES)	EC50 (wild type HIV-1)	EC50 (HIV-1 K103N-L100I mutant; [1])	EC50 (HIV-1 K103N-L100I mutant; read-out: EC50 mutant K103N-L100I, mutant K103N-L100I)
Cc1cc(-c2cc(F)nc(F)c2)cc(C)c1Oc1nc(Nc2ccc(C#N)cc2)nc2ccn(C)c12 [Example 4, 4-(4-(4-(2,6-Difluoropyridin-4-yl)-2,6-dimethylphenoxy)-5-methyl-5H-pyrrolo[3,2-d]pyrimidin-2-ylamino) benzonitrile]	1 to 10 nM	> 10 nM	
COc1cnccc1-c1cc(C)c(Oc2nc(Nc3ccc(C#N)cc3)nc3ccn(C)c23)c(C)c1 [Example 9, 4-(4-(4-(3-Methoxypyridin-4-yl)-2,6-dimethylphenoxy)-5-methyl-5H-pyrrolo[3,2-d]pyrimidin-2-ylamino) benzonitrile]	1 to 10 nM	1 to 10 nM	
COc1cc(-c2cc(C)c(Oc3nc(Nc4ccc(C#N)cc4)nc4ccn(C)c34)c(C)c2)ccn1 [Example 10, 4-(4-(4-(2-Methoxypyridin-4-yl)-2,6-dimethylphenoxy)-5-methyl-5H-pyrrolo[3,2-d]pyrimidin-2-ylamino) benzonitrile]	> 10 nM	> 10 nM	
Cc1cc(-c2ccncc2Cl)cc(C)c1Oc1nc(Nc2ccc(C#N)cc2)nc2ccn(C)c12 [Example 11, 4-(4-(4-(3-Chloropyridin-4-yl)-2,6-dimethylphenoxy)-5-methyl-5H-pyrrolo[3,2-d]pyrimidin-2-ylamino) benzonitrile]	< 1 nM	< 1 nM	
Cc1cc(-c2cccnc2)cc(C)c1Oc1nc(Nc2ccc(C#N)cc2)nc2ccn(C)c12 [Example 12, 4-(4-(2,6-Dimethyl-4-(pyridin-3-yl)phenoxy)-5-methyl-5H-pyrrolo[3,2-d]pyrimidin-2-ylamino)benzonitrile]	1 to 10 nM	> 10 nM	
Cc1cc(-c2ccoc2)cc(C)c1Oc1nc(Nc2ccc(C#N)cc2)nc2ccn(C)c12 [Example 13, 4-(4-(4-(Furan-3-yl)-2,6-dimethylphenoxy)-5-methyl-5H-pyrrolo[3,2-d]pyrimidin-2-ylamino)benzonitrile]	1 to 10 nM	> 10 nM	
Cc1cc(-c2cncnc2)cc(C)c1Oc1nc(Nc2ccc(C#N)cc2)nc2ccn(C)c12 [Example 14, 4-(4-(2,6-dimethyl-4-(pyrimidin-5-yl)phenoxy)-5-methyl-5H-pyrrolo[3,2-d]pyrimidin-2-ylamino) benzonitrile]	< 1 nM	1 to 10 nM	
Cc1cc(-c2ccncc2)cc(C)c1Oc1nc(Nc2ccc(C#N)cc2)nc2c(Cl)cn(C)c12 [Example 18, 4-(7-Chloro-4-(2,6-dimethyl-4-(pyridin-4-yl)phenoxy)-5-methyl-5H-pyrrolo[3,2-d]pyrimidin-2-ylamino)benzonitrile]	1 to 10 nM	1 to 10 nM	
Cc1cc(-c2ccncc2)cc(C)c1Nc1nc(Nc2ccc(C#N)cc2)nc2ccn(C)c12 [Example 19, 4-(4-(2,6-Dimethyl-4-(pyridin-4-yl)phenylamino)-5-methyl-5H-pyrrolo[3,2-d]pyrimidin-2-ylamino)benzonitrile]	< 1 nM	1 to 10 nM	
COc1ncc(-c2cc(C)c(Oc3nc(Nc4ccc(C#N)cc4)nc4ccn(C)c34)c(C)c2)cn1 [Example 20, 4-(4-(4-(2-Methoxypyrimidin-5-yl)-2,6-dimethylphenoxy)-5-methyl-5H-pyrrolo [3,2-d]pyrimidin-2-ylamino)benzonitrile]	< 1 nM	1 to 10 nM	
Cc1cc(-c2c(C)nn(C)c2C)cc(C)c1Oc1nc(Nc2ccc(C#N)cc2)nc2ccn(C)c12 [Example 21]	1 to 10 nM	> 10 nM	
Cc1cc(-c2ccc(N(C)C)cc2)cc(C)c1Oc1nc(Nc2ccc(C#N)cc2)nc2ccn(C)c12 [Example 22, 4-(4-(4′-(Dimethylamino)-3,5-dimethylphenyl-4-yloxy)-5-methyl-5H-pyrrolo[3,2-d]pyrimidin-2-ylamino)benzonitrile]	1 to 10 nM	> 10 nM	
Cc1cc(-c2ccncc2C#N)cc(C)c1Oc1nc(Nc2ccc(C#N)cc2)nc2ccn(C)c12 [Example 23, 4-(4-(2-(4-Cyanophenylamino)-5-methyl-5H-pyrrolo[3,2-d]pyrimidin-4-yloxy)-3,5-dimethyl-phenyl)nicotinonitrile]	< 1 nM		> 10 nM
Cc1cc(-c2ccnn2C)cc(C)c1Oc1nc(Nc2ccc(C#N)cc2)nc2ccn(C)c12 [Example 25, 4-(4-(2,6-Dimethyl-4-(1-methyl-1H-pyrazol-5-yl)phenoxy)-5-methyl-5H-pyrrolo[3,2-d]pyrimidin-2-ylamino)benzonitrile]	< 1 nM	< 1 nM	
Cc1cc(-c2ccc3nonc3c2)cc(C)c1Oc1nc(Nc2ccc(C#N)cc2)nc2ccn(C)c12 [Example 26, 4-(4-(4-(Benzo-[c][1,2,5]oxadiazol-5-yl)-2,6-dimethylphenoxy)-5-methyl-5H-pyrrolo[3,2-d]pyrimidin-2-ylamino) benzonitrile]	1 to 10 nM	1 to 10 nM	
Cc1cc(-c2cnc(N(C)C)nc2)cc(C)c1Oc1nc(Nc2ccc(C#N)cc2)nc2ccn(C)c12 [Example 28]		> 10 nM	
Cc1cc(-c2cnc(N)nc2)cc(C)c1Oc1nc(Nc2ccc(C#N)cc2)nc2ccn(C)c12 [Example 70, 4-(4-(4-(2-aminopyrimidin-5-yl)-2,6-dimethylbiphenoxy)-5-methyl-5H-pyrrolo[3,2-d]pyrimidin-2-ylamino) benzonitrile]		1 to 10 nM	
Cc1cc(-c2cccc(S(N)(=O)=O)c2)cc(C)c1Oc1nc(Nc2ccc(C#N)cc2)nc2ccn(C)c12 [Example 71, 4′-(2-(4-cyanophenylamino)-5-methyl-5H-pyrrolo[3,2-d]pyrimidin-4-yloxy)-3′,5′-dimethylbiphenyl-3-sulfonamide]		> 10 nM	
COc1ccc(-c2cc(C)c(Oc3nc(Nc4ccc(C#N)cc4)nc4ccn(C)c34)c(C)c2)cn1 [Example 82, 4-(4-(4-(6-methoxypyridin-3-yl)-2,6-dimethylphenoxy)-5-methyl-5H-pyrrolo[3,2-d]pyrimidin-2-ylamino) benzonitrile]	> 10 nM		
COc1cccc(C#N)c1-c1cc(C)c(Oc2nc(Nc3ccc(C#N)cc3)nc3ccn(C)c23)c(C)c1 [Example 83, 4′-(2-(4-cyanophenylamino)-5-methyl-5H-pyrrolo[3,2-d]pyrimidin-4-yloxy)-6-methoxy-3′,5′-dimethylbiphenyl-2-carbonitrile]	> 10 nM		
Cc1cc(-c2ccc(C(=O)N3CCCC3)cc2)cc(C)c1Oc1nc(Nc2ccc(C#N)cc2)nc2ccn(C)c12 [Example 93, 4-(4-(3,5-dimethyl-4′-(pyrrolidine-1-carbonyl)biphenyl-4-yloxy)-5-methyl-5H-pyrrolo[3,2-d]pyrimidin-2-ylamino) benzonitrile]	> 10 nM		
Cc1cc(-c2ccc(C(=O)O)cn2)cc(C)c1Oc1nc(Nc2ccc(C#N)cc2)nc2[nH]cnc12 [Example 121, 6-(4-(2-(4-cyanophenylamino)-9H-purin-6-yloxy)-3,5-dimethylphenyl)nicotinic acid]	> 10 nM		
Cc1cc(-c2ccc(C(=O)N3CCC(C(N)=O)C3)cn2)cc(C)c1Oc1nc(Nc2ccc(C#N)cc2)nc2[nH]cnc12 (stereo not drawn) [Example 122, 1-(6-(4-(2-(4-cyanophenylamino)-9H-purin-6-yloxy)-3,5-dimethylphenyl)nicotinoyl)pyrrolidine-3-carboxamide]	> 10 nM		
Cc1cc(-c2ccc(C(N)=O)cn2)cc(C)c1Oc1nc(Nc2ccc(C#N)cc2)nc2[nH]cnc12 [Example 126, 6-(4-(2-(4-cyanophenylamino)-9H-purin-6-yloxy)-3,5-dimethylphenyl)nicotinamide]	1 to 10 nM		
